# Laboratory results from patent US9944583B2, “Methods for ameliorating and preventing central nervous system inflammation” (THE REGENTS OF THE UNIVERSITY OF CALIFORNIA, priority 2007, dated 2018).
# “Also recorded” adds a separate entry of the source.
# Assays:
# [1] = biological target: T1, IL-6 receptors (Homo sapiens, UniProt P08887); conditions: Phase I and II clinical trials, cited from earlier work
# T1 construct: host or cells: patients with rheumatoid arthritis / juvenile idiopathic arthritis
# T1 sequence (P08887 20-468): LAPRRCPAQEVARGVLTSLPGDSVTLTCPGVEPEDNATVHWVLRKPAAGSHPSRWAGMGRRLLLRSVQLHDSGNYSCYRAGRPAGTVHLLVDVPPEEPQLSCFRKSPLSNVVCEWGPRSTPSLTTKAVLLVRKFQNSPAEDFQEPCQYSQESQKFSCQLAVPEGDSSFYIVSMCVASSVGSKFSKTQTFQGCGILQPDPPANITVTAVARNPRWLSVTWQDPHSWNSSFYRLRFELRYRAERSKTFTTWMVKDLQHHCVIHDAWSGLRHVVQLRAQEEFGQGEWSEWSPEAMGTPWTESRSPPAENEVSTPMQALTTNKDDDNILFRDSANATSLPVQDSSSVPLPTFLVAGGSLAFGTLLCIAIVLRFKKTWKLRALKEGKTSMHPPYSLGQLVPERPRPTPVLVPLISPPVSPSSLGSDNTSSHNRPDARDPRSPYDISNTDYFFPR
# [2] = in vivo; cited from earlier work
# [3] = test system: NFkB; assay: IL-6 induced superoxide production (DHE oxidation) in neuronal cultures with NFkB inhibitor; format: cell-based; conditions: assessed 4 hours later
# [4] = test system: primary neuronal cultures; assay: DHE oxidation (superoxide and/or hydrogen peroxide production) in primary neuronal cultures exposed to ketamine; format: cell-based, mouse
# [5] = test system: PV-interneurons; assay: parvalbumin and GAD67 immunoreactivity in PV-interneurons in primary neuronal cultures
# [6] = test system: NADPH oxidase (Nox); assay: Nox activity in synaptosomes by NADPH-dependent oxygen consumption (oximetry); format: biochemical, mouse; conditions: ketamine 30 mg/kg in vivo on two consecutive days
# Experimental: Synaptosomal preparations. […] Mice were euthanized by exposure to a lethal dose of inhaled halothane, followed by cervical dislocation. Brains were rapidly removed, cortices dissected and homogenized in 10 volumes of ice-cold isolation buffer (0.32M sucrose, 1 mM EDTA, 10 mM Tris-HCl buffer, pH 7.4, 10 mM glucose). The homogenate was centrifuged at 3100 rpm for 3 min at 4° C., and the supernatant collected, and the pellet was re-homogenized in half the volume of isolation buffer and centrifuged again. Synaptosomal were then isolated as described (see reference 30, below) modified as follows, the pooled supernatants were mixed with PERCOLL™ (Sigma, St. Louis, Mo.) to a final concentration of 15%, and then layered onto a step gradient of 23% and 40% PERCOLL™, and centrifuged at 16,000 rpm for 5 minutes at 4° C. The uppermost band was extracted, rinsed in isolation buffer, centrifuged and resuspended in synaptosomal buffer (120 mM NaCl, 4.7 mM KCl, 2.2 mM CaCl2, 1.2 mM MgCl2, 25 mM HEPES, 1.2 mM MgSO4, 1.2 mM KH2PO4, 10 mM glucose).
# Oxygen consumption studies (oximetry). O2 consumption studies on synaptosomes are carried out. […] Studies were carried out to optimize the concentration of synaptosomal protein required, and to confirm stability and viability of synaptosomes and their mitochondria for up to 6 h.
# [7] = test system: PV-interneurons in mouse prefrontal cortex; assay: two-day ketamine treatment of mice: oxidized DHE, parvalbumin and GAD67 in prefrontal cortex; format: in vivo
# Experimental: Animals and treatments. […] Male C57BL6 mice were obtained from Jackson Labs, Bar Harbor, Me., at 8-12 weeks and housed in our facility until 15 weeks when they were used for experiments. Ketamine (30 mg/kg) was applied intraperitoneally (IP) on two consecutive days at around 4 pm. DHE was applied 30 min after the last ketamine injection as described (19, 20). Briefly, two serial i.p. injections of freshly prepared dihydroethidium (27 mg/kg) are given at 30 minute intervals. Eighteen hours later, mice are anesthetized with inhaled halothane, and perfused intracardially with cold saline followed by 4% paraformaldehyde in PBS. The Nox inhibitor, apocynin (5 mg/kg/day) was given in the drinking water for a total of seven days, with an assumed intake of […] H2O/mouse/day, and ketamine was applied on the last two days. […] All animal studies were approved by the Animal Care Program at the University of California, San Diego, and are in accordance the PHS Guide for the Care and Use of Laboratory Animals, USDA Regulations, and the AVMA Panel on Euthanasia.
# Immunohistochemistry: Brains were frontally sliced in a vibratome into 50 μm coronal sections encompassing the prefrontal cortex region (from Bregma 2.0 to 1.3). Sequential slices were processed for floating-section double immunohistochemistry for the detection of parvalbumin and GAD67. Antigen retrieval was performed by incubation of the slices in 1% sodium borohydride for 15 min as described (see reference 34, below), followed by washing in PBS and incubation in 10% normal goat serum in PBS for 16 h at 4° C. Primary antibodies (Calbindin: 1:5000: Calretinin: 1:2000; Parvalbumin: 1:3000, all rabbit polyclonals from Swant, Bellinzona, Switzerland. GAD67: 1:1000, from Chemicon-Millipore, Temecula, Calif.) were diluted in 2% normal goat serum in PBS and applied to the slices for 18 h at 4° C., after which slices were washed in PBS and incubated in a 1:1000 dilution of ALEXAFLUOR™ (Molecular Probes, Invitrogen, Carlsbad, Calif.) conjugated goat anti-rabbit (568) or goat anti-mouse (488) antibodies for 1 hr at room temperature (rt). Slices were washed in PBS and mounted sequentially in glass slides using […]™ (Vector Laboratories, Burlingame, Calif.), covered with a coverslip and allowed to dry for at least 24 h before confocal imaging.
# Six slices were analyzed per animal.
# Analysis of superoxide and/or hydrogen peroxide production by confocal imaging of in vivo dihydroethidium (DHE) oxidation. Mice will be injected intraperitoneally (i.p.) with dihydroethidium.
# [8] = test system: PV-interneurons in mouse prefrontal cortex; assay: as above; format: in vivo; conditions: 24 h following a single ketamine exposure
# [9] = test system: synaptosomal mitochondria; assay: respiration of synaptosomal mitochondria (oximetry); conditions: after in vivo ketamine 30 mg/kg, two days
# [10] = test system: primary cultures; conditions: ketamine 0.5 μM, 1 h and 3 h
# [11] = test system: IL-6 mRNA; assay: cytokine mRNA by RT-PCR in ketamine-treated primary neuronal cultures; conditions: ketamine 0.5 μM, up to 24 h
# [12] = test system: Nox2, Nox4, p22phox; assay: Western blot of Nox proteins in brain membranes after in vivo ketamine; conditions: ketamine 30 mg/kg i.p., two consecutive days
# [13] = test system: Nox2; assay: Nox expression in primary neuronal cultures (immunocytochemistry, Western blot)
# [14] = 2-day ketamine, saline 30.1±14.3
# [15] = ketamine 30 mg/kg i.p., two consecutive days
compound,measurement,setting,value
"Tocilizumab: therapeutic humanized monoclonal antibody, specific antagonist for IL-6 receptors",rheumatoid arthritis disease activity,"[1]; 2, 4, 5, 8 or 10 mg/kg, dose-dependent",reduced rheumatoid arthritis disease activity significantly
same,safety and tolerability,[1],generally safe and well tolerated
same,plasma half-life,[2],long plasma half-life
H2N-Ala-Ala-Val-Ala-Leu-Leu-Pro-Ala-Val-Leu-Leu-Ala-Leu-Leu-Ala-Pro-Val-Gln-Arg-Lys-Arg-Gn-Lvs-Leu-Met-Pro-OH (H-AAVALLPAVLLALLAPVQRKRQKLMP-OH) [SN50],effect on IL-6 induced superoxide production (DHE oxidation),[3],blocks
NCc1cc(=O)[nH]o1 [muscimol],effect on ketamine-mediated increase in oxidized DHE,"[4]; co-exposure with ketamine 0.5 μM 24 h, muscimol 10 μM, C3 20 μM, apocynin 0.5 mM",prevented; also recorded: complete block
same,effect on ketamine-mediated loss of parvalbumin and GAD67 immunoreactivity in PV-interneurons,"[5]; co-exposure with ketamine 24 h, muscimol 10 μM, C3, apocynin 0.5 mM",prevented; also recorded: preservation
CNC1(c2ccccc2Cl)CCCCC1=O (centres unmarked) [ketamine],oxidized DHE (neuronal superoxide and/or hydrogen peroxide production),"[4]; ketamine 0.5 μM, 24 h",significant increase; also recorded: pronounced increase
same,Nox activity in synaptosomes,[6],pronounced increase
same,"GAD67 in calbindin cells, mean intensity±SD",[7]; [14],44.2±14.5
same,"GAD67 in calretinin cells, mean intensity+SD",[7]; [14],44.2±14.5
same,"calretinin, mean intensity+SD","[7]; 2-day ketamine, saline 133.6±35.6",139.4±28.7
same,"calbindin, mean intensity±SD","[7]; 2-day ketamine, saline 215.6±32.1",231.6±25.6
same,oxidized DHE in brain / PFC,[7]; [15],widespread increase; also recorded: pronounced increase
same,parvalbumin and GAD67 immunoreactivity in PV-interneurons of PFC,[7]; [15],significant reduction; also recorded: pronounced decrease
same,effects on PV-interneurons in the prefrontal region,[8],not present
same,metabolic activities of synaptosomal mitochondria,[9],not affected
same,"superoxide signals (EPR, DIPPMPO)",[10],rapid increase
same,"levels of other pro-inflammatory cytokines (IL-1, TNF mRNA)",[11],without affecting
same,expression of Nox2 and p22phox in membrane preparations of cortical tissue,[12],significant increase
same,Nox4 expression,"[13]; after ketamine treatment, cultures",did not see changes
same,"Nox2 immunoreactivity, fluorescence quantification","[13]; ketamine 0.5 μM, 24 h, control 100+/−8%",170+/−15%
same,parvalbumin immunoreactivity,"[5]; ketamine 0.5 μM, 24 h",reduction
CNTO-328: human-mouse chimeric monoclonal antibody (Mab) to IL-6 (Centocor),plasma half-life,[2],roughly 17 days
